Results reported in article PMC11233931, “Remodeling tumor‐associated macrophage for anti‐cancer effects by rational design of irreversible inhibition of mitogen‐activated protein kinase‐activated protein kinase 2” (MedComm, 2024).

What was measured:
[1] = system: TNF-α, IL-6 and IL-1β mRNA in THP-1 cell-line-derived macrophage; assay: RT-PCR of cytokine mRNA in LPS-stimulated THP-1 derived macrophages; assay type: cell-based, human; conditions: THP-1 derived macrophage; 3 h pre-treatment, LPS 100 ng/mL 3 h
From the text: MK2 is recognized for inducing the production of pathological cytokines that fuel inflammation, including IL‐6, TNF‐α, and IL‐1β. These cytokines are the classic downstream target gene of MK2 and are identified as significant contributors to the risk of inflammation‐driven cancer,[34], [35], [36] such as colorectal cancer and hepatocellular carcinoma. Therefore, we assessed the transcriptional levels of these typical downstream cytokines in human monocytic THP‐1 cell‐line‐derived macrophage and the mouse RAW264.7 macrophage cell line under the influence of compound 11. […] Taken together, our findings corroborate that compound 11 effectively impedes the transcription and production of these key MK2 downstream pro‐inflammatory cytokines.
FIGURE 4 Targeting cellular MK2 signaling with irreversible inhibition by compound 11. […] (C) The inhibitory effects of compound 11 on TNF‐α and IL‐6 production in LPS‐stimulated RAW264.7 macrophages for 24 h, measured by ELISA. […]
Total RNA was extracted from cultured cells using the EZ‐press RNA Purification Kit (EZBioscience). Complementary DNA was synthesized using the ABScript III RT Master Mix for qPCR with gDNA remover (ABclonal Technology) and was quantified with primers listed in Table S5. The relative mRNA expression levels were quantified through qPCR using the SYBR green gene expression assay (ABclonal Technology).

[2] = system: p-Hsp27; assay: Cellular washout assay, p-Hsp27 by western blot; assay type: cell-based; conditions: 1 h pretreatment, then LPS
Protocol: FIGURE 4 Targeting cellular MK2 signaling with irreversible inhibition by compound 11. (A and B) RT‐PCR analysis of IL‐1β, TNF‐α, and IL‐6 expression in Lipopolysaccharides (LPS)‐stimulated THP‐1 (A) and RAW264.7 (B) Cells, with pre‐treatment of compound 11 for 3 h followed by LPS (3 h) stimulation. (C) The inhibitory effects of compound 11 on TNF‐α and IL‐6 production in LPS‐stimulated RAW264.7 macrophages for 24 h, measured by ELISA. (D and E) Compound 11, alongside CC‐99677 and PF‐3644022, suppressed MK2 pathway activation, validated through western blot analysis post‐LPS stimulation. Cells were preincubated with the specified compounds for 1 h prior to LPS stimulation (100 ng/mL, 30 min). (F) Distinguishes the mode of action between compound 11 and CC‐99677. The complex structure of a small molecule and MK2 (3R2Y) with the same parent nucleus as compound 11 is shown in cyans, and the complex structure of a small molecule and MK2 (3FYJ) with the same parent nucleus as CC‐99677 is shown in orange. (G–I) The effect of indicated inhibitor on Hsp27 phosphorylation following inhibitor washout. Cells were pretreated with indicated compounds for 1 h and then washed to remove free compound and incubated for a further indicated time before activation with LPS. In (A–C), LPS (100 ng/mL) served as the stimulation control, while untreated cells were the baseline control. The data represent as mean ± SD from triplicates, with statistical analysis conducted via one‐way analysis of variance (ANOVA) (^## p < 0.01, ^### p < 0.001 vs. stimulation control; ^***p < 0.001 vs. baseline control).
Furthermore, to validate the irreversible mechanism of action of compound 11 at the cellular level, we performed a cellular washout assay and assessed p‐Hsp27 levels. The established MK2 irreversible inhibitor CC‐99677 served as positive control, while the reversible ATP‐competitive inhibitor PF‐3644022 was used as negative control. […] In contrast, only 1 h after PF‐3644022 washout, p‐Hsp27 level was totally recovered (Figure 4I).
After the treatment outlined in the figure legends, cells were lysed using 1× sodium dodecyl sulfate (SDS) solution. The lysates were then subjected to SDS‐polyacrylamide gel electrophoresis for separation, followed by transferring onto nitrocellulose membranes. The membranes were incubated with primary antibodies specific to phospho‐MK2, phospho‐Hsp27, MK2, Hsp27, GAPDH, and β‐actin (Cell Signaling Technology), followed by horseradish peroxidase‐conjugated anti‐mouse or anti‐rabbit IgG secondary antibodies. Protein bands were detected using an enhanced chemiluminescence detection reagent (Thermo Fisher Scientific).

[3] = system: MC38 tumor; assay: In vivo antitumor evaluation in MC38 tumor model; set-up: species or system C57BL/6 mice
Protocol: C57BL/6 mice, aged 6 weeks, were house and cared for in a controlled, specific pathogen‐free environment. MC38 tumor cells (3.5 × 10[5] in 100 µL) were administered to the mice via subcutaneous injection into the right flanks. Upon reaching a tumor volume between 50 and 100 mm^3, mice were randomized and assigned to either the vehicle control group or the specified treatment group (n = 7/group). The details regarding the administration of inhibitors and the measurement of tumors are delineated in the Supporting Information Methods.
The mice then received intraperitoneal injections of either the vehicle control or compound 11 (at dosages of 25 or 50 mg/kg) twice daily for 10 days. Tumor size was gauged every three days with a microcaliper, and the tumor volume (TV) was estimated using the formula: TV = (length × width^2)/2. Additionally, the individual Tumor Growth Inhibition value (TGI) was assessed on the last day of the experiment for mice treated with the drug in comparison to those treated with the vehicle. The formula used was 100 × {1 - [(VTreated Final day -VTreated Day 0)/(VControl Final day -VControl Day 0)].

[4] = Cell viability assay (CCK-8), Raw264.7; assay type: cell-based; conditions: Raw264.7 cells (mononuclear macrophage), Raw264.7, mouse mononuclear macrophage, read-out: IC50 (μM) mean ± SD, cytotoxicity
Protocol: (§1) In cellular experiments, cells are seeded into either 6-well or 96-well plates and incubated overnight, proceeding with treatments as described in the figure legends or methods section. The cell inoculation numbers are outlined as follows: For assays measuring cell viability, between 3,000 to 5,000 cells are seeded per well in 96-well plates. For other cellular assays, the seeding density ranges from 5×10^5 to 1×10^6 cells per well in 6-well plates.
(§2) Cells was plated into 96-well plates and incubated overnight prior to introduction of varying concentrations of compounds or control solvent. Following a 72-hour exposure period, cell viability was determined using a Cell Counting Kit-8 assay (Life-iLab, China). Dose-response curves were fitted using a four-parameter method facilitated by SoftMax Pro, which was subsequently used for the computation of IC50 values.

[5] = Cell viability assay (CCK-8), PANC-1; assay type: cell-based; conditions: PANC-1 cells (pancreatic carcinoma), PANC-1, human pancreatic carcinoma, read-out: IC50 (μM) mean ± SD, cytotoxicity
Protocol: as §1, §2

C=CC(=O)Nc1cc(-c2cc(-c3cc4c([nH]3)CCNC4=O)ccn2)ccc1OC(F)(F)F [compound 11]
effect on LPS-induced TNF-α, IL-6 and IL-1 mRNA expression [1]: significantly inhibited | p-Hsp27 level 3 h after inhibitor washout ([2]; 3 h): still significantly inhibited | time after inhibitor washout at which p-Hsp27 level recovered [2]: 24 h | tumor growth inhibition rate (TGI) ([3]; 25 mg/kg bid x10, ip): 47.5% | tumor growth inhibition rate (TGI) ([3]; 50 mg/kg bid x10, ip): 64.0% | IC50 at 72 h [4]: 31.7 ± 2.9 µM | IC50 at 72 h [5]: 35.3 ± 1.4 µM
